Experimental data as given in US20260041640A1 (INCYCLIX BIO, LLC, priority 2023, published 2026).
Like-named read-outs stand apart in the source and are kept apart here. Marks after values point to notes of the source that are not given here. Values belong to the compound of their own block, whether it stands above or below them.

Tests used:
[1] = Published human plasma PK of BLU-222 and PF-07104091 (estimated from 2023 ASCO presentations); assay type: in vivo; conditions: for Cmax to Cmin Ratio: estimated from published human results
Text: This is under the assumption that off-target toxicity is driven by Cmax and efficacy is driven by time above therapeutic threshold (Table 5).

[2] = cited from earlier work
CCNE1-amplified cancers = conditions: BID dosing; cited from earlier work
Ovcar-3 = conditions: BLU-222: based on Ovcar-3 cell cycle data (maximum G1 arrest); read-out: Cellular IC50; cited from earlier work
[3] = treatment-related AEs, cited from earlier work
CDK2/cyclin E [4] = molecular target: T1, CDK2/cyclin E (Homo sapiens, UniProt P24941); conditions: biochemical; read-out: Target IC50 CDK2/cyclin E; cited from earlier work
[5] = phase 1/2 trial, advanced solid tumors; cited from earlier work
CDK2/cyclin E [6] = molecular target: T1, CDK2/cyclin E; conditions: intracellular; read-out: Nanobret IC50 CDK2/cyclin E; cited from earlier work
[7] = plasma, 400 mg BID, estimated from published graph
[8] = plasma, 600 mg BID, estimated from published graph

SMILES: COCc1cc(C(=O)Nc2cc([C@H]3CC[C@@H](OC(=O)NC(C)C)C3)[nH]n2)n(C)n1 [PF-07104091]
- C12 hr (Cmin at 12 hours) ([1]; 300 mg BID, estimated using Cmax of 2000 ng/mL and t1/2 of 2-3 hours): ~31-125* ng/mL
- concentration at 12 h ([1]; human, 300 mg, read-out: C12 hr (Cmin at 12 hours)): 31.2 to 125 ng/mL
- t1/2 ([2]; human, plasma): 2 to 3 h
- MTD and monotherapy recommended dose for expansion (RDE) ([2]; human): 300 mg BID
- Cmax ([2]; plasma, 300 mg BID, estimated from 2023 ASCO presentation): ~2000* ng/mL
- In Vivo efficacy (efficacious dose) (CCNE1-amplified cancers): ≥ 100 mg/kg BID
- IC50 (Ovcar-3): < 100 nM
- anemia ([3]; Grade 3): 8.6%
- diarrhea ([3]; Grade 3): 8.6%
- fatigue ([3]; Grade 3): 20.0%
- nausea ([3]; Grade 3): 14.3%
- vomiting ([3]; Grade 3): 2.9%
- anemia ([3]; all grades): 45.7%
- diarrhea ([3]; all grades): 48.6%
- fatigue ([3]; all grades): 45.7%
- nausea ([3]; all grades): 77.1%
- vomiting ([3]; all grades): 48.6%

- Cmax to Cmin Ratio ([1]; 400 mg BID): 9.3
- Cmax to Cmin Ratio ([1]; 600 mg BID): 22
SMILES: FC(F)Oc1cc(Nc2cnc3cnn(CC4CCOCC4)c3n2)n[nH]1 [BLU-222]
- IC50 (CDK2/cyclin E [4]): 2.6 nM
- ocular adverse events (AEs) affecting vision, incidence [5]: 19%
- ocular adverse events (AEs) affecting vision, patients [5]: 5 patients
- C12 hr [2, 7]: 100* ng/mL
- Cmax [2, 7]: 927* ng/mL
- C12 hr [2, 8]: 120* ng/mL
- Cmax [2, 8]: 2639* ng/mL
- In Vivo efficacy (efficacious dose) (CCNE1-amplified cancers): 100 mg/kg mg/kg BID
- IC50 (Ovcar-3): > 100 nM
- IC50 (CDK2/cyclin E [6]): 17.7 nM
